# Data: patent publication US20070037785A1, “Novel dipeptidyl peptidase IV inhibitors used for functionally influencing different cells and treating immunological, infammatory, neuronal, and other diseases” (priority 2003, published 2007)
# pIC50: −log10 of the molar value.
# Biological target: dipeptidyl peptidase IV (Homo sapiens, UniProt P27487)
# Experiment: biochemical
# Details: values marked with "*" are ID50 values; read-out: IC50DPIV, values marked with "*" = ID50
# Chain of dipeptidyl peptidase IV (P27487 whole entry, species assumed): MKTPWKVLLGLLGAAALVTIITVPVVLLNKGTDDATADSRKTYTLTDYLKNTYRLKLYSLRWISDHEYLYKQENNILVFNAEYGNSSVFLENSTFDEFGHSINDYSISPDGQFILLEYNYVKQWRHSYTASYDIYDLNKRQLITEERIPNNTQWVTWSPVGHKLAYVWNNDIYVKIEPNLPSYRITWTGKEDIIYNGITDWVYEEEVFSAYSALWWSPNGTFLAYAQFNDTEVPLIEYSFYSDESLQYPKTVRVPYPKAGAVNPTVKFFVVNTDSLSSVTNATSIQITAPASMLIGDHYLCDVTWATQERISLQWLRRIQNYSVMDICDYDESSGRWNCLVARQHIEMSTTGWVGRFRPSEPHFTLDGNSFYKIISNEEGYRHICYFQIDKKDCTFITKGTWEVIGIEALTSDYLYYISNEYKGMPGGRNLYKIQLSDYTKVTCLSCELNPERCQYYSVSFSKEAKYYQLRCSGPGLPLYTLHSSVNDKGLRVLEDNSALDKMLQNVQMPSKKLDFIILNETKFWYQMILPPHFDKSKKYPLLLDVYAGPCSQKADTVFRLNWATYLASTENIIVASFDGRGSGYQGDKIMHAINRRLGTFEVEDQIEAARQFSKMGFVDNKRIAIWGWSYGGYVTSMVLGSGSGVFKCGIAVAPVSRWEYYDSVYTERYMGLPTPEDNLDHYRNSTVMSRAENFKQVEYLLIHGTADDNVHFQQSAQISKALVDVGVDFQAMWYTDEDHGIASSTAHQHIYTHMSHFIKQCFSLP
row,Compound,pIC50
1,COc1cccc(/C=N/NC(=O)c2ccc(OCc3cccc(Br)c3)cc2)c1OC [D10.140],3.34
2,COc1ccc(N2C(=O)CSCC2=O)cc1OC [D4.004],5.51
3,COc1cc(/C=N/NC(=O)c2ccc(NC(=O)c3ccccc3C)cc2)cc(OC)c1OC [D10.100],4.04
4,O=C(N/N=C/c1cccc(OC(=O)c2ccccc2Cl)c1)/C(=C\c1ccc2c(c1)OCO2)NC(=O)c1ccccc1 [D10.143],3.18
5,CCn1c2ccccc2c2cc(/C=N/NC(=O)c3ccc([N+](=O)[O-])cc3)ccc21 [D10.116],3.78
6,COc1cc(/C=N/NC(=O)c2cc(O)c(O)c(O)c2)cc(Br)c1OCc1ccccc1Cl [D10.002],5.70
7,C/C(=N\NC(=O)CNC(=O)c1ccc(Cl)cc1)c1ccc2ccccc2c1 [D10.122],3.68
8,CSc1nc2sc3c(c2c2nnc(SCc4cccc(OC(C)C)c4)n12)CC(C)(C)OC3 [D3.108],3.57
9,O=C(N/N=C/c1cccc([N+](=O)[O-])c1)c1ccc(NCc2ccccc2)cc1 [D10.126],3.63
10,CC(C)c1ccc(N2CC(C(=O)Nc3ccc(Br)cc3Br)CC2=O)cc1 (stereo not drawn) [D4.096],3.77
11,C/C(=N\NC(=O)c1cc(-c2ccc(CC(C)C)cc2)n[nH]1)c1ccc2ccccc2c1 [D10.007],5.14
12,CC(C)(C)c1cc2oc3c(c2c(/C=N/NC(=O)c2ccc(O)cc2O)c1O)CCCC3 [D10.097],4.13
13,CCOC(=O)n1ccc(C(=O)Nc2ccccn2)n1 [D2.007],3.83
14,CS(=O)(=O)N1CCN(c2ccc([N+](=O)[O-])c(NCc3ccc(Cl)cc3)c2)CC1 [D5.053],3.44

# Same assay, conditions: values without "*" = IC-50; read-out: IC50DPIV
row,Compound,pIC50
1,COc1ccc2ccccc2c1/C=N/NC(=O)c1cc2ccccc2cc1O [D10.031],4.75
2,CCCOC(=O)c1cc(-c2ccc(/C=C3/C(=O)N(CC(C)O)C(=O)C(C#N)=C3C)o2)ccc1Cl (stereo not drawn) [D4.083],4.09
3,CCOC(=O)n1ccc(C(=O)Nc2ccccc2F)n1 [D6.026],4.75
4,N#CC1=C(N)C(C#N)(C#N)C(c2ccccc2)C2CNCC=C12 (stereo not drawn) [D3.035],4.28
5,CCOC(=O)c1ccc(-c2ccc(/C=C3\C(=O)N(CCO)C(=O)C(C#N)=C3C)o2)cc1 [D4.074],4.18
6,O=C(COc1cccc(Br)c1)N/N=C/c1cc(O)c(O)c(Br)c1Br [D10.014],4.94
7,CCCC(=O)O/N=C1/C(=O)N(c2ccccc2)c2ccccc21 [D11.006],4.82
8,COc1cc(C)ccc1N(CCCN1C(=O)c2cccc3cccc(c23)C1=O)C(=O)c1cc(C)cc(C)c1 [D3.073],4.26
9,Cc1ccc(/C=N/NC(=O)c2ccc(NC(=O)c3cccc([N+](=O)[O-])c3)cc2)o1 [D10.045],4.54
10,CC(C)(C)C(=O)N1CCN(c2cc(Cl)nc(SCC(=O)N3CCN(Cc4ccc5c(c4)OCO5)CC3)n2)CC1 [D3.059],4.34
11,Cc1ccc(C2N(CC(C)C)CC(C(=O)c3c(C)cccc3C)N2CCCN2CCCC2=O)cc1 (stereo not drawn) [D6.008],5.12
12,Cc1ccc(Cn2cccc2/C=N/NC(=S)Nc2ccc(C)c(C)c2)cc1 [D10.077],4.26
13,CCN(CC)C(=O)C1CCCN(c2ccc([N+](=O)[O-])cc2/C=N/NC(=O)c2cccc([N+](=O)[O-])c2)C1 (stereo not drawn) [D10.075],4.27
14,O=C(COc1ccc2ccccc2c1)N/N=C/c1c(Br)cc(Br)c(O)c1Br [D10.095],4.16
15,CCOC(=O)C(NC(=O)c1ccccc1)(N1CCOCC1)C(F)(F)F (stereo not drawn) [D5.041],4.21
16,Cc1ccccc1C(=O)N/N=C/c1ccc([N+](=O)[O-])o1 [D6.036],4.68
17,CC(=O)Oc1cccc(N2C(=O)c3ccc(C(=O)NCc4ccc(C(=O)O)cc4)cc3C2=O)c1 [D4.023],4.74
18,N#Cc1c(NC(=O)C(C(F)(F)F)C(F)(F)F)sc2c1CCC2 [D3.038],4.51
19,CN(C)CCNc1nc2c(c(=O)n(C)c(=O)n2C)n1Cc1ccccc1Cl [D6.006],5.12
20,COC(=O)c1ccc(NC(=O)/C(=C\c2cccc([N+](=O)[O-])c2)NC(=O)c2ccc(Br)o2)cc1 [D6.108],3.94
21,NC(=O)C1CCN(c2ccc(N3C(=O)CCCC3=O)cc2[N+](=O)[O-])CC1 [D4.070],4.24
22,CN(C)CCNc1nc2c(c(=O)n(C)c(=O)n2C)n1Cc1ccccc1Cl [D3.004],5.12
23,O=C(COc1cccc([N+](=O)[O-])c1)N/N=C/c1ccc(O)c([N+](=O)[O-])c1 [D10.044],4.61
24,CCCn1c(N2CCN(CC(=O)c3c(C)n(C)c4ccccc34)CC2)nc2c1c(=O)[nH]c(=O)n2C [D5.023],4.51
25,O=C(/C=C/c1ccco1)Nc1ccc2oc(-c3cccc(Cl)c3Cl)nc2c1 [D3.055],4.37

row,Compound,pIC50
1,CCOc1ccc(/C=N/NC(=O)c2cc(-c3c(OC)ccc4ccccc34)n[nH]2)cc1 [D3.100],4.25
2,CCCn1c(N2CCN(CC(=O)c3c(C)n(C)c4ccccc34)CC2)nc2c1c(=O)[nH]c(=O)n2C [D4.019],4.82
3,COc1ccc(OCC(=O)N/N=C\C(C)=C/c2ccc(/C=C(C)\C=N/NC(=O)COc3ccc(OC)cc3Br)cc2)c(Br)c1 [D10.101],4.04
4,CCOC(=O)c1c(C)oc2c1c1c(c3ccccc32)OCN(C2CCS(=O)(=O)C2)C1 (stereo not drawn) [D12.017],4.47
5,CCOC(=O)c1c(C)oc2c1c1c(c3ccccc32)OCN(C2CCS(=O)(=O)C2)C1 (stereo not drawn) [D4.045],4.47
6,N#C/C(=C\c1ccc(N2CCCCC2)c([N+](=O)[O-])c1)c1nn(CCO)c(N)c1C#N [D4.032],4.63
7,O=C(COc1cccc(Cl)c1)N/N=C/c1ccc(O)c([N+](=O)[O-])c1 [D10.049],4.50
8,COc1c(OC(C)=O)ccc(/C=N/NC(=O)CNc2cccc(C)c2)c1[N+](=O)[O-] [D10.019],4.90
9,O=C(Oc1csc(-c2cccnc2)n1)C1CC1 [D4.061],4.28
10,COC(=O)O/N=C(/N)c1nonc1N [D11.011],4.35
11,O=C(N/N=C/c1cccc(I)c1)c1cc(Br)ccc1O [D10.060],4.44
12,Cc1cccc(C(=O)N/N=C/c2c(O)ccc3ccccc23)c1 [D10.072],4.33
13,COc1cc(N2C(=O)CSCC2=O)c(Cl)cc1Cl [D4.047],4.45
14,CC1CCc2c(sc(NC(=O)C(C(F)(F)F)C(F)(F)F)c2C#N)C1 (stereo not drawn) [D3.080],4.22
15,CC(=O)N(C(C)=O)c1nc(-c2ccccc2)cn1/N=C/c1ccccc1 [D10.011],5.00
16,COc1cc2c(cc1OC)C1(CCCC1)CN(CC#N)C2 [D3.039],4.50
17,CC(=O)Oc1cccc(N2C(=O)C3C(C2=O)C2(C)C=CC3(C)O2)c1 (stereo not drawn) [D4.073],4.18
18,Cn1c(=O)[nH]c(=O)c2c1nc(NCCO)n2Cc1ccccc1Cl [D3.058],4.36
19,N#Cc1c(CC(=O)C(C(F)(F)F)C(F)(F)F)sc2c1CCC2 [D6.047],4.51
20,O=C(Nc1c[nH]c(=O)[nH]c1=O)c1ccc2c(c1)C(=O)N(c1ccc(C(=O)c3ccccc3)cc1)C2=O [D12.016],4.42
21,O=C(N/N=C/c1cc([N+](=O)[O-])cc([N+](=O)[O-])c1O)/C(=C\c1cccs1)NC(=O)c1ccccc1 [D10.029],4.76
22,CCCC(=O)O/N=C1\C(=O)N(c2ccccc2)c2ccccc21 [D3.021],4.82
23,CC(C)(C)C1CCc2c(sc(NC(=O)C(C(F)(F)F)C(F)(F)F)c2C#N)C1 (stereo not drawn) [D3.092],4.00
24,CCCOC(=O)c1cc(-c2ccc(/C=C3\C(=O)N(CCCO)C(=O)C(C#N)=C3C)o2)ccc1Cl [D6.092],4.12
